Laboratory results reported in US8481515B2, “Derivatives of cholest-4-en-3-one oxime, pharmaceutical compositions containing them and preparation method” (Trophos, priority 2005, dated 2013).

Assays:
rat motoneurons = experiment: in vitro trophic deprivation model of rat motoneurons (survival, calcein fluorescence); assay type: cell-based; details: 3 days of culture, no trophic factors
Excerpt: It may be helpful to refer to Patent Application WO 0142784 of the applicant on the culture of spinal cord motoneurons.
The spinal cord of E14 rat embryos is dissected and the ventral portion is dissociated by trituration after trypsinization. The motoneurons are separated from the other spinal cells by a known method (Camu et al, 1993, Purification of spinal motoneurons from chicken and rat embryos by immunopanning. In <<Immunoselection Strategies for Neural cell culture>>), Neuroprotocols: A companion to Methods in Neurosciences 2, 191-199; Henderson et al., 1993, Neutrophins promote motor neuron survival and are present in embryonic limb bud. Nature 363 (6426):266-70). The cells are centrifuged on a density gradient. The motoneurons are enriched with the fraction of large (the less dense) cells. The cells of this fraction are incubated with an anti-p75 antibody, a surface antigen present on motoneurons. Secondary antibodies coupled with magnetic beads are added and the cell mixture is passed through a column in a magnet (Arce et al, 1999 Cardiotrophin-1 requires LIFRbeta to promote survival of mouse motoneurons purified by a novel technique. J. Neurosci Res 55(1): 119-26). Only motoneurons are retained: their purity is of the order of 90%.
The motoneurons are sown at low density in culture wells on a polyornithine-laminine substrate in a neurobasal medium (GIBCO) supplemented according to Raoul et al, 1999, Programmed cell death of embryonic motoneurons triggered through the Fas death receptor. J. Cell. Biol. 147(5):1049-62. Negative (absence of trophic factors) controls and positive controls (in the presence of 1 ng/ml BDNF (Brain-Derived Neurotrophic Factor), 1 ng/ml GDNF (Glial-Derived Neurotrophic Factor) and 10 ng/ml CNTF (Ciliary Neurotrophic Factor) as marketed by the US company PEPROTECH, Inc. and Sigma-Aldrich) are included in each series.
The compounds to be tested are added 60 minutes after sowing and the cultures are maintained at 37° C. under 5% CO2 for 3 days.
The motoneurons tend to die spontaneously in the absence of neurotrophic factors (Pettmann and Henderson, 1998, Neuronal cell death. Neuron 20(4):633-47). After 3 days, survival is evaluated by a fluorescence measurement after incubation of the cells in the presence of calcein which becomes fluorescent in living cells.
After 3 days of culture at 37° C. under 5% CO2 and in saturating humidity, up to 50% of the initially sown motoneurons survive in the medium supplemented with neurotrophic factors, whereas less than 15% of the motoneurons survive in a culture medium not added with neurotrophic factors.
The neuroprotective activity of the compounds to be tested was evaluated by their capacity of preventing the death of motoneurons when they are added to the Neurobasal medium (GIBCO) as compared with survival of the motoneurons in a medium added with neurotrophic factors.
The compounds of formula I according to the invention have shown neuroprotective activity at a concentration capable of providing a better survival rate of the motoneurons in the Neurobasal medium. This survival rate is expressed by the number of living cells after treatment with the compound to be tested as compared with survival induced by neurotrophic factors. This ratio therefore represents the survival percentage due to the tested compound as compared with the survival induced by neurotrophic factors. If the ratio is greater than 0, the effect of the compound is positive for the survival of motoneurons.

striatal neurons = experiment: protection of striatal neurons against death induced by overexpression of a mutated form of huntingtin; assay type: cell-based; details: 7 days, living cells expressing GFP
Description: Primary cultures of striatal neurons are prepared and they are described in the literature (Primary striatal neuronal culture, Mao L. et al., Methods Mol. Med., 2003, 79:379-86). […] A second expression vector containing the DNA coding for the green fluorescent protein (GFP) is also electroporated and is used as a reporter gene. The DNA of the plasmid coding for the huntingtin was prepared by purifying with cesium chloride. The plasmid containing the GFP sequence was prepared on Qiagen columns. The integrity of the DNA sequences is checked by sequencing, transfection and Western blotting. The cells which survive electroporation are sown at a density of 4,000 cellules per well of 96-well plates. The culture is accomplished in neurobasal medium (GIBCO) supplemented with pyruvate and B-27 (Beckton Dickinson). The cells are maintained in culture for 7 days without changing the medium.
[…] Positive controls are made by adding BDNF at a final level of 5 ng/ml. The negative controls only receive 0.5% DMSO.
Cell death is evaluated after 7 days by counting the number of living cells expressing GFP.
The activity of the compounds to be tested was evaluated by their capacity of preventing death of striatal neurons cultivated in the neurobasal medium as compared with the survival of striatal neurons in a medium supplemented with BDNF (Brain-Derived Neurotrophic Factor).

cortical neurons = experiment: protection of cortical neurons against camptothecin-induced death (calcein-AM cell count); assay type: cell-based, Sprague-Dawley rat; details: 10 μM camptothecin, 16 hours, mean ± standard deviation, n = 8 wells
Description: Cortical neurons were prepared from Sprague-Dawley rat embryos in the E18 pregnancy stage and cultivated in a 96-well plate at a density of 333 cells/mm^2 in Neurobasal medium (Invitrogen) supplemented with 2% B27 (Invitrogen) and 2% sodium pyruvate. With these culture conditions, it is possible to obtain very good cortical neuron purity in the cultures. After 6 days in culture, the death of cortical neurons was induced by adding 10 μM camptothecin dissolved in dimethyl sulfoxide (DMSO). At the same moment, the neurons were treated with different concentrations of the compound to be tested. The final DMSO concentration after treatment is 1%. After 16 hours of incubation with camptothecin, the survival of the neurons was evaluated by counting the surviving cells. To do this, the cells were incubated for 20 minutes in the presence of a vital dye, calcein-AM (Invitrogen) at 2 μg/ml. After labelling, each culture well was analyzed by means of an imaging station (Flash Cytometer, TROPHOS, FRANCE) provided with an image analysis software package TINA 4.5 (TROPHOS, France) allowing acquisition of digital images of the whole of the well (exposure time 40 ms). The cells, defined by pixel size criteria (min=10; max=40), were then counted by means of the Tina 4.5 software package (TROPHOS)

CC(C)CCC[C@@H](C)[C@H]1CC[C@H]2[C@@H]3CC(=O)C4=CC(=NO)CC[C@]4(C)[C@H]3CC[C@]12C [Example 3, 3-oxyimino-cholest-4-en-6-one]
Ratio (survival of motoneurons with compound as compared with survival induced by neurotrophic factors) (rat motoneurons; concentration 3 μM): 0.60
Ratio (survival of striatal neurons as compared with survival in medium supplemented with BDNF) (striatal neurons; concentration 1 μM): 0.3
Cell viability (%) (cortical neurons; 0.1 μM compound): 63.3 ± 20.3%
Cell viability (%) (cortical neurons; 0.3 μM compound): 99.1 ± 15.7%
Cell viability (%) (cortical neurons; 1 μM compound): 112.2 ± 22.3%

CCC(C=C[C@@H](C)[C@H]1CC[C@H]2[C@@H]3CC(=O)C4=CC(=NO)CC[C@]4(C)[C@H]3CC[C@]12C)C(C)C (stereo partly shown) [Example 7, 24-ethyl-3-oxyimino-cholest-4,22-dien-6-one]
Ratio (survival of motoneurons with compound as compared with survival induced by neurotrophic factors) (rat motoneurons; concentration 1 μM): 0.46

CC(C)CCC[C@@H](C)[C@H]1CC[C@H]2[C@@H]3CC(=NO)C4=CC(=NO)CC[C@]4(C)[C@H]3CC[C@]12C [Example 9, cholest-4-en-3,6-dioxime]
Ratio (survival of motoneurons with compound as compared with survival induced by neurotrophic factors) (rat motoneurons; concentration 0.6 μM): 0.25
Ratio (survival of striatal neurons as compared with survival in medium supplemented with BDNF) (striatal neurons; concentration 0.3 μM): 0.5

CC(C)=CCC[C@@H](C)[C@H]1CC[C@H]2[C@@H]3CC(=NO)C4=CC(=NO)CC[C@]4(C)[C@H]3CC[C@]12C [Example 10, cholest-4,24-dien-3,6-dioxime]
Ratio (survival of motoneurons with compound as compared with survival induced by neurotrophic factors) (rat motoneurons; concentration 1 μM): 0.25

CCC(C=C[C@@H](C)[C@H]1CC[C@H]2[C@@H]3CC(=NO)C4=CC(=NO)CC[C@]4(C)[C@H]3CC[C@]12C)C(C)C (stereo partly shown) [Example 13, 24-ethyl-cholest-4,22-dien-3,6-dioxime]
Ratio (survival of motoneurons with compound as compared with survival induced by neurotrophic factors) (rat motoneurons; concentration 1 μM): 0.34
